The test system of this assay is MV-4-11 cells. The experiment in a line: Gene expression microarray analysis (Affymetrix PrimeView) and GSEA. The format is cell-based, human. Details: RFU PODN (11730768_x_at) / Fold change /veh PODN (11730768_x_at) / RFU LINC00158 (11744669_a_at) / Fold change /veh LINC00158 (11744669_a_at) / RFU DUSP10 (11751237_a_at) / Fold change /veh DUSP10 (11751237_a_at) / RFU ID3 (11757404_x_at) / Fold change /veh ID3 (11757404_x_at) / RFU PLEKHG5 (11737974_s_at) / Fold change /veh PLEKHG5 (11737974_s_at) / RFU LRRC4B (11730491_at) / Fold change /veh LRRC4B (11730491_at) / RFU GIMAP4 (11747438_a_at) / Fold change /veh GIMAP4 (11747438_a_at) / RFU KRT8 (11758183_x_at) / Fold change /veh KRT8 (11758183_x_at) / RFU CNN1 (11734310_a_at) / Fold change /veh CNN1 (11734310_a_at) / RFU VPS37D (11726825_at) / Fold change /veh VPS37D (11726825_at) / RFU C10orf10 (11716522_x_at) / Fold change /veh C10orf10 (11716522_x_at) / RFU KIR2DL2 /// KIR2DL4 /// KIR2DL5A /// KIR2DL5B /// KIR2DS1 /// KIR2DS2 /// KIR2DS3 /// KIR2DS4 /// KIR3DL3 /// KIR3DL3 /// KIR3DS1 (11738374_at) / Fold change /veh KIR2DL2 /// KIR2DL4 /// KIR2DL5A /// KIR2DL5B /// KIR2DS1 /// KIR2DS2 /// KIR2DS3 /// KIR2DS4 /// KIR3DL3 /// KIR3DL3 /// KIR3DS1 (11738374_at) / RFU C1QL1 (11718748_at) / Fold change /veh C1QL1 (11718748_at) / RFU TMPRSS4 (11747572_a_at) / Fold change /veh TMPRSS4 (11747572_a_at) / RFU HAMP (11756126_x_at) / Fold change /veh HAMP (11756126_x_at) / RFU RNFT2 (11725882_a_at) / Fold change /veh RNFT2 (11725882_a_at) / RFU NR4A2 (11747474_a_at) / Fold change /veh NR4A2 (11747474_a_at) / RFU ABCC12 (11746883_a_at) / Fold change /veh ABCC12 (11746883_a_at) / RFU TMEM136 (11760407_x_at) / Fold change /veh TMEM136 (11760407_x_at) / RFU CLDN22 /// WWC2 (11732394_at) / Fold change /veh CLDN22 /// WWC2 (11732394_at) / RFU HLA-DPB1 (11760878_x_at) / Fold change /veh HLA-DPB1 (11760878_x_at) / RFU SPINT1 (11716480_a_at) / Fold change /veh SPINT1 (11716480_a_at) / RFU GAP43 (11754022_s_at) / Fold change /veh GAP43 (11754022_s_at) / RFU A4GNT (11735810_at) / Fold change /veh A4GNT (11735810_at) / RFU PRB3 (11715151_x_at) / Fold change /veh PRB3 (11715151_x_at) / RFU TUBB4B (11761932_at) / Fold change /veh TUBB4B (11761932_at) / RFU CAPN14 (11732068_a_at) / Fold change /veh CAPN14 (11732068_a_at) / RFU TMCC2 (11721928_a_at) / Fold change /veh TMCC2 (11721928_a_at) / RFU IRGQ (11745062_a_at) / Fold change /veh IRGQ (11745062_a_at) / RFU FAM174B (11720279_a_at) / Fold change /veh FAM174B (11720279_a_at) / RFU TMPRSS4 (11748680_a_at) / Fold change /veh TMPRSS4 (11748680_a_at) / RFU FAM212B (11763350_a_at) / Fold change /veh FAM212B (11763350_a_at) / RFU PLEKHG5 (11743358_a_at) / Fold change /veh PLEKHG5 (11743358_a_at) / RFU ZSCAN30 (11745921_a_at) / Fold change /veh ZSCAN30 (11745921_a_at) / RFU CMKLR1 (11741424_a_at) / Fold change /veh CMKLR1 (11741424_a_at) / RFU LOC101060620 /// MAPK8IP1 (11723275_at) / Fold change /veh LOC101060620 /// MAPK8IP1 (11723275_at) / RFU SPTSSB (11747773_x_at) / Fold change /veh SPTSSB (11747773_x_at) / RFU PRSS12 (11739890_at) / Fold change /veh PRSS12 (11739890_at) / RFU BIN1 (11741810_x_at) / Fold change /veh BIN1 (11741810_x_at) / RFU WNT11 (11732464_a_at) / Fold change /veh WNT11 (11732464_a_at) / RFU C10orf10 (11716521_a_at) / Fold change /veh C10orf10 (11716521_a_at) / RFU C5orf56 (11738089_at) / Fold change /veh C5orf56 (11738089_at) / RFU CYB561 (11721691_x_at) / Fold change /veh CYB561 (11721691_x_at) / RFU ANKRD19P (11752326_a_at) / Fold change /veh ANKRD19P (11752326_a_at) / RFU OR2T12 /// OR2T33 /// OR2T8 (11738714_s_at) / Fold change /veh OR2T12 /// OR2T33 /// OR2T8 (11738714_s_at) / RFU VCAN (11748164_a_at) / Fold change /veh VCAN (11748164_a_at) / RFU JSRP1 (11732532_at) / Fold change /veh JSRP1 (11732532_at) / RFU KRTAP10-11 (11738290_x_at) / Fold change /veh KRTAP10-11 (11738290_x_at) / RFU MYO3A (11730013_a_at) / Fold change /veh MYO3A (11730013_a_at) / RFU EBF3 (11725865_a_at) / Fold change /veh EBF3 (11725865_a_at) / RFU CAMK2N1 (11719241_x_at) / Fold change /veh CAMK2N1 (11719241_x_at) / RFU C5orf56 (11738088_a_at) / Fold change /veh C5orf56 (11738088_a_at) / RFU OLFML3 (11715873_a_at) / Fold change /veh OLFML3 (11715873_a_at) / RFU LOC100653217 /// NTM (11731650_a_at) / Fold change /veh LOC100653217 /// NTM (11731650_a_at) / RFU MAPK11 (11762145_a_at) / Fold change /veh MAPK11 (11762145_a_at) / RFU FIZ1 (11724087_x_at) / Fold change /veh FIZ1 (11724087_x_at) / RFU OASL (11726364_x_at) / Fold change /veh OASL (11726364_x_at) / RFU SOX15 (11748057_x_at) / Fold change /veh SOX15 (11748057_x_at) / RFU CD79A (11719716_a_at) / Fold change /veh CD79A (11719716_a_at) / RFU HIST1H1D (11736915_at) / Fold change /veh HIST1H1D (11736915_at) / RFU CASKIN2 (11723855_a_at) / Fold change /veh CASKIN2 (11723855_a_at) / RFU LOC730098 (11760151_x_at) / Fold change /veh LOC730098 (11760151_x_at) / RFU OR4N2 (11742367_at) / Fold change /veh OR4N2 (11742367_at) / RFU PRRT2 (11749266_a_at) / Fold change /veh PRRT2 (11749266_a_at) / RFU SNX32 (11753110_a_at) / Fold change /veh SNX32 (11753110_a_at) / RFU CDHR5 (11726645_a_at) / Fold change /veh CDHR5 (11726645_a_at) / RFU RCAN1 (11760418_a_at) / Fold change /veh RCAN1 (11760418_a_at) / RFU FAM167A (11723789_a_at) / Fold change /veh FAM167A (11723789_a_at) / RFU FAM26E (11764081_at) / Fold change /veh FAM26E (11764081_at) / RFU ISYNA1 (11749810_s_at) / Fold change /veh ISYNA1 (11749810_s_at) / RFU ACY1 (11761880_at) / Fold change /veh ACY1 (11761880_at) / RFU 11764098_at / Fold change /veh 11764098_at / RFU SAMD14 (11745864_x_at) / Fold change /veh SAMD14 (11745864_x_at) / RFU NPB (11741838_a_at) / Fold change /veh NPB (11741838_a_at) / RFU TMPRSS6 (11731388_a_at) / Fold change /veh TMPRSS6 (11731388_a_at) / RFU KRTAP10-2 (11738614_at) / Fold change /veh KRTAP10-2 (11738614_at) / RFU ARHGAP8 /// PRR5-ARHGAP8 (11727945_x_at) / Fold change /veh ARHGAP8 /// PRR5-ARHGAP8 (11727945_x_at) / RFU KRTAP5-7 /// NADSYN1 (11734609_at) / Fold change /veh KRTAP5-7 /// NADSYN1 (11734609_at) / RFU RASL12 (11751679_a_at) / Fold change /veh RASL12 (11751679_a_at) / RFU CDKN2B (11736163_a_at) / Fold change /veh CDKN2B (11736163_a_at) / RFU PRF1 (11729649_at) / Fold change /veh PRF1 (11729649_at) / RFU, ZNF638 /// ZNF638-IT1 / Fold change vs veh, ZNF638 /// ZNF638-IT1 / RFU, PANK3 / Fold change vs veh, PANK3 / RFU, SH3YL1 / Fold change vs veh, SH3YL1 / RFU, ZEB2 / Fold change vs veh, ZEB2 / RFU, NRIP1 / Fold change vs veh, NRIP1 / RFU, PTTG1IP / Fold change vs veh, PTTG1IP / RFU, CAPN2 / Fold change vs veh, CAPN2 / RFU, MED14 / Fold change vs veh, MED14 / RFU, SNORA58 / Fold change vs veh, SNORA58 / RFU, C1orf63 / Fold change vs veh, C1orf63 / RFU, LRRFIP1 / Fold change vs veh, LRRFIP1 / RFU, NDUFAF7 / Fold change vs veh, NDUFAF7 / RFU, SLC12A2 / Fold change vs veh, SLC12A2 / RFU, IBTK / Fold change vs veh, IBTK / RFU, ESF1 / Fold change vs veh, ESF1 / Fold change vs veh, TMEM50B / RFU, TAOK1 / Fold change vs veh, TAOK1 / RFU, ACBD3 / Fold change vs veh, ACBD3 / RFU, TMA16 / Fold change vs veh, TMA16 / RFU, RWDD3 / Fold change vs veh, RWDD3 / RFU, BCAT1 / Fold change vs veh, BCAT1 / RFU, EDEM3 / Fold change vs veh, EDEM3 / RFU, TMEM33 / Fold change vs veh, TMEM33 / RFU, WDR75 / Fold change vs veh, WDR75 / RFU, AHCTF1 / Fold change vs veh, AHCTF1 / RFU, TFRC / Fold change vs veh, TFRC / RFU, ZDHHC17 / Fold change vs veh, ZDHHC17 / RFU, NOM1 / Fold change vs veh, NOM1 / RFU, ARL8B / Fold change vs veh, ARL8B / RFU, ZBTB11 / Fold change vs veh, ZBTB11 / RFU, TAMM41 / Fold change vs veh, TAMM41 / RFU, KIAA1704 /// LOC100996395 / Fold change vs veh, KIAA1704 /// LOC100996395 / RFU, ING1 / Fold change vs veh, ING1 / RFU, TRMT61B / Fold change vs veh, TRMT61B / RFU, FUBP3 / Fold change vs veh, FUBP3 / RFU, TP53 / Fold change vs veh, TP53 / RFU, TNKS2 / Fold change vs veh, TNKS2 / RFU, ZFP14 / Fold change vs veh, ZFP14 / RFU, ACTR2 / Fold change vs veh, ACTR2 / RFU, PPP3R1 / Fold change vs veh, PPP3R1 / RFU, PIK3R1 / Fold change vs veh, PIK3R1 / RFU, HNRNPA1 / Fold change vs veh, HNRNPA1 / RFU, RNF170 / Fold change vs veh, RNF170 / RFU, ZNF28 / Fold change vs veh, ZNF28 / RFU, RNGTT / Fold change vs veh, RNGTT / RFU, OGT / Fold change vs veh, OGT / RFU, BRD1 / Fold change vs veh, BRD1 / RFU, MARS / Fold change vs veh, MARS / RFU, ZNF655 / Fold change vs veh, ZNF655 / RFU, FAHD1 / Fold change vs veh, FAHD1 / RFU, BDP1 / Fold change vs veh, BDP1 / RFU, LRRCC1 / Fold change vs veh, LRRCC1 / RFU, ARID1A / Fold change vs veh, ARID1A / RFU, ZNF146 / Fold change vs veh, ZNF146 / RFU, ZNF330 / Fold change vs veh, ZNF330 / RFU, GPN3 / Fold change vs veh, GPN3 / RFU, C9orf123 / Fold change vs veh, C9orf123 / RFU, N4BP2L2 / Fold change vs veh, N4BP2L2 / RFU, ARFIP1 / Fold change vs veh, ARFIP1 / RFU, FAM179B / Fold change vs veh, FAM179B / RFU, BCL10 / Fold change vs veh, BCL10 / RFU, UHRF1BP1L / Fold change vs veh, UHRF1BP1L / RFU, BET1 / Fold change vs veh, BET1 / RFU, CNOT2 / Fold change vs veh, CNOT2 / RFU, ZNF268 / Fold change vs veh, ZNF268 / Fold change vs veh, ZNF507 / RFU, DGCR2 / Fold change vs veh, DGCR2 / RFU, WDSUB1 / Fold change vs veh, WDSUB1 / Fold change vs veh, HSP90B1 /// MIR3652 / RFU, ADSS / Fold change vs veh, ADSS / RFU, GK / Fold change vs veh, GK / RFU, ZNF148 / Fold change vs veh, ZNF148 / RFU, TAF9 / Fold change vs veh, TAF9 / RFU, SLC1A5 / Fold change vs veh, SLC1A5 / RFU, SLMO2 / Fold change vs veh, SLMO2 / RFU, ABCC4 / Fold change vs veh, ABCC4 / RFU, LOC101060439 /// RAP1B / Fold change vs veh, LOC101060439 /// RAP1B / RFU, RFX7 / Fold change vs veh, RFX7 / RFU, GTPBP10 / Fold change vs veh, GTPBP10 / RFU, CNEP1R1 / Fold change vs veh, CNEP1R1 / RFU, BIVM-ERCC5 /// ERCC5 / Fold change vs veh, BIVM-ERCC5 /// ERCC5 / RFU, ILF3 / Fold change vs veh, ILF3 / RFU 11762660_at / Fold change /veh 11762660_at / RFU VCAN (11757783_s_at) / Fold change /veh VCAN (11757783_s_at) / RFU DDX43 (11728927_at) / Fold change /veh DDX43 (11728927_at) / RFU KRT8 (11758188_x_at) / Fold change /veh KRT8 (11758188_x_at) / RFU NKD1 (11759106_at) / Fold change /veh NKD1 (11759106_at) / RFU SRD5A1 (11742802_a_at) / Fold change /veh SRD5A1 (11742802_a_at) / RFU TPSAB1 /// TPSB2 (11721975_s_at) / Fold change /veh TPSAB1 /// TPSB2 (11721975_s_at) / RFU GSTM3 (11746129_a_at) / Fold change /veh GSTM3 (11746129_a_at) / RFU IL23R (11737362_x_at) / Fold change /veh IL23R (11737362_x_at) / RFU TMEM51 (11727254_a_at) / Fold change /veh TMEM51 (11727254_a_at) / RFU PIWIL2 (11732686_x_at) / Fold change /veh PIWIL2 (11732686_x_at) / RFU ORM1 (11744905_x_at) / Fold change /veh ORM1 (11744905_x_at) / RFU CCDC152 (11743942_at) / Fold change /veh CCDC152 (11743942_at) / RFU ECM1 (11717891_a_at) / Fold change /veh ECM1 (11717891_a_at) / RFU IL23R (11748794_a_at) / Fold change /veh IL23R (11748794_a_at) / RFU TNFAIP8L3 (11732012_x_at) / Fold change /veh TNFAIP8L3 (11732012_x_at) / RFU MBOAT4 (11741988_at) / Fold change /veh MBOAT4 (11741988_at) / RFU 11764193_at / Fold change /veh 11764193_at / RFU TMEM53 (11763286_at) / Fold change /veh TMEM53 (11763286_at) / RFU MAGEB2 (11727129_at) / Fold change /veh MAGEB2 (11727129_at) / RFU TMEM200A (11744735_a_at) / Fold change /veh TMEM200A (11744735_a_at) / RFU CCDC152 (11751479_a_at) / Fold change /veh CCDC152 (11751479_a_at) / RFU FAM211A (11726209_a_at) / Fold change /veh FAM211A (11726209_a_at) / RFU RGS16 (11746705_a_at) / Fold change /veh RGS16 (11746705_a_at) / RFU VCAN (11755009_s_at) / Fold change /veh VCAN (11755009_s_at) / RFU RHOB (11743442_s_at) / Fold change /veh RHOB (11743442_s_at) / RFU RGS16 (11720943_a_at) / Fold change /veh RGS16 (11720943_a_at) / RFU RGS16 (11720944_at) / Fold change /veh RGS16 (11720944_at) / RFU, VPS4B / Fold change vs veh, VPS4B / RFU, CREB1 / Fold change vs veh, CREB1 / RFU, DNAJC13 / Fold change vs veh, DNAJC13 / RFU, GNAQ / Fold change vs veh, GNAQ / RFU, CDK5R1 / Fold change vs veh, CDK5R1 / RFU, ZRANB3 / Fold change vs veh, ZRANB3 / RFU, CUL4A / Fold change vs veh, CUL4A / RFU, CCNY / Fold change vs veh, CCNY / RFU, UFL1 / Fold change vs veh, UFL1 / RFU, COG3 / Fold change vs veh, COG3 / RFU, DIAPH2 / Fold change vs veh, DIAPH2 / RFU, SKA2 / Fold change vs veh, SKA2 / RFU, AFF3 / Fold change vs veh, AFF3 / RFU, LMF1 / Fold change vs veh, LMF1 / RFU, IPO11 / Fold change vs veh, IPO11 / RFU, DFFB / Fold change vs veh, DFFB / RFU, FOXP1 / Fold change vs veh, FOXP1 / RFU, CARD8 / Fold change vs veh, CARD8 / RFU, STRN3 / Fold change vs veh, STRN3 / RFU, ADK / Fold change vs veh, ADK / RFU, RASSF2 / Fold change vs veh, RASSF2 / RFU, WIPF1 / Fold change vs veh, WIPF1 / RFU, LARP1B / Fold change vs veh, LARP1B / RFU, RASA1 / Fold change vs veh, RASA1 / RFU, RB1 / Fold change vs veh, RB1 / RFU, PPFIA1 / Fold change vs veh, PPFIA1 / RFU, MAT2A / Fold change vs veh, MAT2A / RFU, CCT5 / Fold change vs veh, CCT5 / RFU, WDR92 / Fold change vs veh, WDR92 / RFU, CUX1 / Fold change vs veh, CUX1 / RFU, TTC7A / Fold change vs veh, TTC7A / RFU, TMEM135 / Fold change vs veh, TMEM135 / RFU, DEPTOR / Fold change vs veh, DEPTOR / RFU, CPM / Fold change vs veh, CPM / RFU, DNAJB6 / Fold change vs veh, DNAJB6 / RFU, CACNA2D3 / Fold change vs veh, CACNA2D3 / RFU, DTX4 / Fold change vs veh, DTX4 / RFU, TFCP2 / Fold change vs veh, TFCP2 / RFU, GMCL1 /// GMCL1P1 / Fold change vs veh, GMCL1 /// GMCL1P1 / RFU, AEBP2 / Fold change vs veh, AEBP2 / RFU, SNHG1 /// SNORD22 /// SNORD25 /// SNORD26 /// SNORD27 /// SNORD28 /// SNORD29 /// SNORD31 / Fold change vs veh, SNHG1 /// SNORD22 /// SNORD25 /// SNORD26 /// SNORD27 /// SNORD28 /// SNORD29 /// SNORD31 / Fold change (Aza/veh), C12orf56 (ProbeSet 11735607_a_at) / Fold change (ACY-1035/veh), C12orf56 (ProbeSet 11735607_a_at) / Fold change (Aza/veh), FGFR1OP (ProbeSet 11751329_s_at) / Fold change (ACY-1035/veh), FGFR1OP (ProbeSet 11751329_s_at) / Fold change (Aza/veh), VPS36 (ProbeSet 11739960_a_at) / Fold change (ACY-1035/veh), VPS36 (ProbeSet 11739960_a_at) / RFU SYPL1 (11715823_x_at) / Fold change /veh SYPL1 (11715823_x_at) / RFU IGFBP7 (11715501_s_at) / Fold change /veh IGFBP7 (11715501_s_at) / RFU REEP3 (11722064_at) / Fold change /veh REEP3 (11722064_at) / RFU IGLL1 (11728026_x_at) / Fold change /veh IGLL1 (11728026_x_at): dose or concentration left out as unconfirmed. The note with it: ProbeSet 11756954_s_at; LIST B.

On to `Nc1ncn([C@@H]2O[C@H](CO)[C@@H](O)[C@H]2O)c(=O)n1` [azacitidine], for which the “RFU, ZEB2” value was found to be 1324.44 RFU.
